Like-named read-outs stand apart in the source and are kept apart here.
How the values were obtained:
PRC2 enzyme = PRC2 enzyme (Homo sapiens (Human), UniProt O75530); assay: PRC2 enzyme activity, TR-FRET method; type: biochemical
Procedure: The TR-FRET method was used to measure the PRC2 enzyme activity. First, the enzyme was mixed with compounds at different concentrations and incubated for 30 min at room temperature. The biotin-labeled histone H3 peptide substrate and the cofactor S-adenosylmethionine (SAM) were added to initiate the enzymatic reaction. After reaction was performed at room temperature for 4 hour, Acceptor and Donor were added and incubated for half an hour. The multifunctional microplate reader EnVision (Perkin Elmer Inc.) was used to detect the fluorescence signal. Data were analyzed using GraphPad Prism 5.0 software, and IC50 values were obtained.

Pfeiffer cells = assay: Pfeiffer cell growth inhibition in a long term (11 days), CellTiter-Glo; type: cell-based, Human; settings: Homo sapiens, 264 h, read-out: Experiment on Pfeiffer cell growth inhibition in a long term (11 days IC50)
Procedure: Pfeiffer cells in exponential growth phase were seeded in a 24-well plate with a cell density of 1*10E5 cells/mL. Cells were treated on the same day with the compounds at different concentrations. At day 4 and day 7 of compound treatment, fresh media and compounds were changed. After treated with the compounds for 11 days, cell viability was measured using CellTiter-Glo reagent (Promega Corporation). The data was analyzed using GraphPad Prism 5.0 software and GI50 values were obtained.

[1] = Liver microsomal stability (rat); type: in vitro ADME; settings: rat liver microsomes
Procedure: (§1) 1. JANUS and temperature control device was turned on. After being initialized, the pipes were flushed until there was no air bubble in the pipes.
(§2) 2. Preparation of buffers used for the experiment
(§3) Preparation of Tris pH 7.4 buffer (0.1 M): 12.12 g of Tris was dissolved in 1000 mL of H2O, the resulting solution was adjusted to pH 7.4 with 2N HCl, aliquoted at 50 mL per tube, and stored at −20° C.
(§4) Preparation of H2O/0.1% BSA buffer: 200 μL of 25% BSA was added to 50 mL of H2O.
(§5) Preparation of VIVID stock solution: 1 mg of VIVID was dissolved in 1 mL of acetonitrile, aliquoted at 50 μL per tube, and stored at −20° C.
(§6) Preparation of MgCl2 solution (100 mM): 1.016 g of MgCl2 was dissolved in 50 mL Tris pH 7.4 buffer, and aliquoted at 1 mL per tube, and stored at −20° C.
(§7) Preparation of NADPH solution (10 mM): 355 mg of NADPH was dissolved in 42.6 mL of Tris pH 7.4 buffer, aliquoted at 1.8 mL per tube, and stored at −20° C.
(§8) Preparation of Blank control: 7.937 mL of Tris, 163 μL of RLM, 450 μL of MgCl2 solution, 450 μL of NADPH solution and 9 mL of methanol were mixed uniformly, aliquoted at 1 mL per tube, and stored at −20° C.
(§9) 3. Preparation of Compound Working Solution
(§10) Dilution step 1:10 μL of compound stock solution was added to 90 μL of DMSO=1 mM stock solution.
(§11) Dilution step 2: 2 μL of 1 mM stock solution was added to 1 mL of H2O/0.1%6 BSA buffer=[…] working solution.
(§12) Dilution step 3: 245 μL of the working solution was added to a 96-well compound plate and added with 5 μL of VIVID stock solution.
(§13) The 96-well compound plate was shaken on a shaker for 5 min.
(§14) 4. The STM in the JANUS in the computer was open to run the EXCEL file, and the JANUS program was operated and run by following the instructions in the EXCEL file.
(§15) 5. After the JANUS program was finished, acetonitrile/water 50:50 (V/V) was added to column 20 of the 384-well black plate, and blank control was added to column 21 of the 384-well black plate.
(§16) 6. the plate (420 nm-465 nm) was read on a microplate reader to determine the VIVID fluorescence intensity.
(§17) 7. After the plate was sealed, shaken and centrifuged, the sample plate was subjected to the LC/MS instrument for sample analysis.
(§18) A profile of the logarithmic value of the remaining rate of the drug in the incubation system versus the incubation time was plotted, and the slope k was obtained by linear regression. The intrinsic clearance rate in vivo (Clint, mL/min/g) value, the clearance rate in vivo (Cl, mL)/min), liver clearance (Clhep, mL/min) and metabolic bioavailability (% MF) were predicted according to the following equations: […]

[2] = Liver microsomal stability (human); type: in vitro ADME
Procedure: as §1, §2, §3, §4, §5, §6, §7, §8, §9, §10, §11, §12, §13, §14, §15, §16, §17, §18

[3] = Liver microsomal stability (mouse); type: in vitro ADME; settings: mouse liver microsomes

Sequence of PRC2 enzyme (O75530 whole entry): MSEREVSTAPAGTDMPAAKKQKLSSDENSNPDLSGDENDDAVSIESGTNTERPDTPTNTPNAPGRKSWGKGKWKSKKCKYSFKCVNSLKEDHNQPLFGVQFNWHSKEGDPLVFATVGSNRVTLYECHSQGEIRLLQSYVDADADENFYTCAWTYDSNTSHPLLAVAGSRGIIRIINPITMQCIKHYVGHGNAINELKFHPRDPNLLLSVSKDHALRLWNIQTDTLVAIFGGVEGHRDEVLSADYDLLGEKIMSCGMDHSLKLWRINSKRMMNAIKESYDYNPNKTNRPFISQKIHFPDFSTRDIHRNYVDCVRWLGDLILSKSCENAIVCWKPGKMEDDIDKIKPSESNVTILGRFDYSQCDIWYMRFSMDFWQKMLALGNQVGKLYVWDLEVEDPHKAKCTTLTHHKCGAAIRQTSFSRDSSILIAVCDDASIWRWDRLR
Sequence of PRC2 enzyme (Q15910 whole entry partner): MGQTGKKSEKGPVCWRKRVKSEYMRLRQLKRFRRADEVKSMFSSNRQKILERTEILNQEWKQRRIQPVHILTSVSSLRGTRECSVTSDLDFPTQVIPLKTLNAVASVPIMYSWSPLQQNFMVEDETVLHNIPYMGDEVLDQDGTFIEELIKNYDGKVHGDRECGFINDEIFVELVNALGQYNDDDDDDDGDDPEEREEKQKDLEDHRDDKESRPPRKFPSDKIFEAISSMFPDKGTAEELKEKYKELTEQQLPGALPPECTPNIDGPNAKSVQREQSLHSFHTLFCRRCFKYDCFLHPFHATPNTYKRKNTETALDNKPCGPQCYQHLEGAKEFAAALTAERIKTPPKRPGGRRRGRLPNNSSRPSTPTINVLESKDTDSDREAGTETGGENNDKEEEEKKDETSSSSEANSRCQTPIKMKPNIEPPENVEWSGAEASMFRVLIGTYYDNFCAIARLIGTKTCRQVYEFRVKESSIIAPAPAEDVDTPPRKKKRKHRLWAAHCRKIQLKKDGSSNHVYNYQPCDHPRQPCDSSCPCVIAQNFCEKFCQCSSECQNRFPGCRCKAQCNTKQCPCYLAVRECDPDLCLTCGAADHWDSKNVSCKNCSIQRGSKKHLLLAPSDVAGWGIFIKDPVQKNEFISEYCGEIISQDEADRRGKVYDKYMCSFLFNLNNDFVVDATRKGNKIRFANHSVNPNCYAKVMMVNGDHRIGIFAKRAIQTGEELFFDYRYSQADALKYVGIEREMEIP
Sequence of PRC2 enzyme (Q15022 whole entry partner): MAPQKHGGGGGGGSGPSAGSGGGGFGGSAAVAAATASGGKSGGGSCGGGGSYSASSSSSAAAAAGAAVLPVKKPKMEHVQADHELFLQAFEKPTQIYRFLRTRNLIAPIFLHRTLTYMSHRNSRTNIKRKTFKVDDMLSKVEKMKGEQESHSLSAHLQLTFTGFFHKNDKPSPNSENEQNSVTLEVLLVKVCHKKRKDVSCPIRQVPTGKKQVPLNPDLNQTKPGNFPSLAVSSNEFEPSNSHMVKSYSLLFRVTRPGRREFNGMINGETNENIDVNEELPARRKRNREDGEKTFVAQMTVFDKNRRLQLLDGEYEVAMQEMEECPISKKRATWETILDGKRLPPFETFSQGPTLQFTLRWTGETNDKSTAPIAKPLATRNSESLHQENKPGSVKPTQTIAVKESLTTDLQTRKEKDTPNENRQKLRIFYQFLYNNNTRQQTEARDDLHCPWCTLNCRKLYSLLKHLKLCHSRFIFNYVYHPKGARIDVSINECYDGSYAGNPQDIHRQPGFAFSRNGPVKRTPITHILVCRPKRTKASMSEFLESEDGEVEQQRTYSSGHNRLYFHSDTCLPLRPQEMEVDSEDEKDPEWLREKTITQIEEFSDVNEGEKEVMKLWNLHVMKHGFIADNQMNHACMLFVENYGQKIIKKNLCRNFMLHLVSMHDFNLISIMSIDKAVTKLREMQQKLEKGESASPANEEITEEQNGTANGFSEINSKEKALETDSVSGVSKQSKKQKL

## O=C(c1ccccc1)N1CC=C(c2cnc(NCc3ccco3)n3cnnc23)CC1 [E-Y21]
PRC2 enzyme
  IC50: 351 nM
Pfeiffer cells; 11 days
  IC50: 185 nM

## CN(C)CC(=O)N1CC=C(c2cnc(NCc3ccco3)n3cnnc23)CC1 [E-Y35]
PRC2 enzyme
  IC50: 318 nM

## O=C(NC1CC=C(c2cnc(NCc3ccco3)n3cnnc23)CC1)c1ccccc1 (centres unmarked) [E-Y31]
PRC2 enzyme
  IC50: 758 nM

## CCNC(=S)N1CC=C(c2cnc(NCc3c(F)ccc4c3CCO4)n3cnnc23)CC1 [E-Y19]
PRC2 enzyme
  IC50: 9.3 nM
Pfeiffer cells
  IC50: 3 nM

## CCNC(=O)N1CCC(c2cnc(NCc3c(F)ccc4c3CCO4)n3cnnc23)CC1 [E-Y48]
PRC2 enzyme
  IC50: 5.4 nM
Pfeiffer cells; 11 days
  IC50: 15.9 nM

## c1cc(CNc2ncc(C3CCOCC3)c3nncn23)c2c(c1)OCC2 [SL-ZYE-14]
PRC2 enzyme
  IC50: 84 nM

## CC(F)(F)C(=O)N1CC=C(c2cnc(NCc3ccco3)n3cnnc23)CC1 [E-Y34]
PRC2 enzyme
  IC50: 907 nM

## O=C(c1cnco1)N1CC=C(c2cnc(NCc3c(F)ccc4c3CCO4)n3cnnc23)CC1 [E-Y41]
PRC2 enzyme
  IC50: < 20 nM
Pfeiffer cells; 11 days
  IC50: 4.5 nM

## CC1(C)CC(c2cnc(NCc3c(F)ccc4c3CCO4)n3cnnc23)CCO1 (centres unmarked) [SL-ZYE-121]
PRC2 enzyme
  IC50: 4.2 nM

## C1=C(c2cnc(NCc3cccc4c3CCO4)n3cnnc23)CCOC1 [SL-ZYE-11]
PRC2 enzyme
  IC50: 17.9 nM

## COC(=O)N1CCC=C(c2cnc(NCc3c(F)ccc4c3CCO4)n3cnnc23)CC1 [SL-ZYE-183]
PRC2 enzyme
  IC50: 2.2 nM

## CN1CCC(c2cnc(NCc3c(F)ccc4c3CCO4)n3cnnc23)CC1 [SL-E25]
PRC2 enzyme
  IC50: 15 nM

## CC(=O)N1CC=C(c2cnc(NCc3ccco3)n3cnnc23)CC1 [E-Y20]
PRC2 enzyme
  IC50: 166 nM
Pfeiffer cells; 11 days
  IC50: 158 nM

## CC(=O)N1CCC=C(c2cnc(NCc3c(F)ccc4c3CCO4)n3cnnc23)CC1 [SL-E13]
PRC2 enzyme
  IC50: 3.3 nM
Pfeiffer cells; 11 days
  IC50: 6 nM

## CS(=O)(=O)N1CCC(c2cnc(NCc3c(F)ccc4c3CCO4)n3cnnc23)CC1 [E-Y13-H]
PRC2 enzyme
  IC50: 10.7 nM

## CS(=O)(=O)N1CCC=C(c2cnc(NCc3c(F)ccc4c3CCO4)n3cnnc23)CC1 [SL-E14]
PRC2 enzyme
  IC50: 1.7 nM

## CC(C)(C)OC(=O)N1CC=C(c2cc(C#N)c(NCc3ccco3)n3cnnc23)CC1 [E-Y51]
PRC2 enzyme
  IC50: 200 nM

## CS(=O)(=O)NC1CC=C(c2cnc(NCc3ccco3)n3cnnc23)CC1 (centres unmarked) [E-Y32]
PRC2 enzyme
  IC50: 342 nM

## CC1C=C(c2cnc(NCc3c(F)ccc4c3CCO4)n3cnnc23)CC(C)N1C(=O)OC(C)(C)C (centres unmarked) [SL-ZYE-23]
PRC2 enzyme
  IC50: 47.6 nM

## CC(C)(C)OC(=O)N1CC=C(c2cnc(NCc3ccco3)n3cnnc23)CC1 [E-Y6]
Pfeiffer cells; 11 days
  IC50: 83 nM

## CS(=O)(=O)N1CC=C(c2cnc(NCc3ccco3)n3cnnc23)CC1 [E-Y22]
PRC2 enzyme
  IC50: 334 nM

## Cc1ccc(NC(=O)N2CC=C(c3cnc(NCc4ccco4)n4cnnc34)CC2)cc1 [E-Y26]
PRC2 enzyme
  IC50: 91 nM

## CC(=O)N1CCC(c2cnc(NCc3ccco3)n3cnnc23)CC1 [E-Y20-H]
PRC2 enzyme
  IC50: 93.9 nM

## CN(C)CC(=O)N1CC=C(c2cnc(NCc3c(F)ccc4c3CCO4)n3cnnc23)CC1 [E-Y54-H]
[1]
  Clearance rate in vivo Clint In Vivo Extpl: 4.26 mL/min
  Half life T-half: 3.7 h
  Intrinsic clearance rate in vivo Clint In Vitro: 9.47 mL/min/gprot
  Liver clearance rate Clint Hep In Vivo Extpl: 3.51 mL/min
  Metabolic bioavailability MF %: 82.4%
[2]; human liver microsomes
  Clearance rate in vivo Clint In Vivo Extpl: 336 mL/min
  Half life T-half: 7.98 h
  Intrinsic clearance rate in vivo Clint In Vitro: 4.39 mL/min/gprot
  Liver clearance rate Clint Hep In Vivo Extpl: 274 mL/min
  Metabolic bioavailability MF %: 81.7%
PRC2 enzyme
  IC50: 5 nM
[3]
  Clearance rate in vivo Clint In Vivo Extpl: 1.21 mL/min
  Half life T-half: 1.95 h
  Intrinsic clearance rate in vivo Clint In Vitro: 17.9 mL/min/gprot
  Liver clearance rate Clint Hep In Vivo Extpl: 0.862 mL/min
  Metabolic bioavailability MF %: 71.3%

## CC(C)(C)NC(=O)N1CC=C(c2cnc(NCc3ccco3)n3cnnc23)CC1 [E-Y25]
PRC2 enzyme
  IC50: 373 nM

## COC(=O)N1CC=C(c2cnc(NCc3c(F)ccc4c3CCO4)n3cnnc23)CC1 [SL-ZYE-147]
Pfeiffer cells; 11 days
  IC50: 1 to 3 nM

## Fc1ccc2c(c1CNc1ncc(C3=CCSCC3)c3nncn13)CCO2 [E-Y2]
PRC2 enzyme
  IC50: 8 nM

## C1=C(c2cnc(NCc3ccco3)n3cnnc23)CCSC1 [E-Y5]
PRC2 enzyme
  IC50: 611 nM

## CN1CCC(c2cnc(NCc3c(F)ccc4c3CCO4)n3cnnc23)CC1=O (centres unmarked) [SL-E26]
PRC2 enzyme
  IC50: 8.4 nM

## O=C(NC(=S)N1CC=C(c2cnc(NCc3c(F)ccc4c3CCO4)n3cnnc23)CC1)c1ccccc1 [E-Y39]
PRC2 enzyme
  IC50: 54.5 nM

## Cc1ccc(S(=O)(=O)N2CC=C(c3cnc(NCc4c(F)ccc5c4CCO5)n4cnnc34)CC2)cc1 [E-Y14]
PRC2 enzyme
  IC50: 101 nM

## CC(=O)NC1CC=C(c2cnc(NCc3ccco3)n3cnnc23)CC1 (centres unmarked) [E-Y30]
PRC2 enzyme
  IC50: 793 nM

## CC1(C)C=C(c2cnc(NCc3c(F)ccc4c3CCO4)n3cnnc23)CCO1 [SL-ZYE-120]
PRC2 enzyme
  IC50: 3.6 nM

## CCNC(=O)N1CC=C(c2cnc(NCc3c(F)ccc4c3CCO4)n3cnnc23)CC1 [E-Y17]
Pfeiffer cells; 11 days
  IC50: 2.7 nM

## Fc1ccc2c(c1CNc1ncc(C3CCCOCC3)c3nncn13)CCO2 (centres unmarked) [SL-ZYE-08]
PRC2 enzyme
  IC50: 11.9 nM

## CC(C)(C)OC(=O)N1CC=C(c2cnc(NCc3cccc4occc34)n3cnnc23)CC1 [SL-ZYE-18]
PRC2 enzyme
  IC50: 115 nM

## O=S1(=O)CCC(c2cnc(NCc3c(F)ccc4c3CCO4)n3cnnc23)CC1 [SL-ZYE-34]
PRC2 enzyme
  IC50: 3.2 nM

## C1=C(c2cnc(NCc3cccc4occc34)n3cnnc23)CCOC1 [SL-ZYE-17]
PRC2 enzyme
  IC50: 56 nM

## CC1(C)C=C(c2cnc(NCc3c(F)ccc4c3CCO4)n3cnnc23)CC(C)(C)O1 [SL-ZYE-195]
PRC2 enzyme
  IC50: 22.3 nM

## CN(C)CC(=O)N1CC=C(c2cnc(NCc3c(F)ccc4c3CCO4)n3cnnc23)CC1 [E-Y54]
[1]
  Clearance rate in vivo Clint In Vivo Extpl: 10.0 mL/min
  Half life T-half: 1.57 h
  Intrinsic clearance rate in vivo Clint In Vitro: 22.3 mL/min/gprot
  Liver clearance rate Clint Hep In Vivo Extpl: 6.67 mL/min
  Metabolic bioavailability MF %: 66.6%
[2]; human liver microsomes
  Clearance rate in vivo Clint In Vivo Extpl: 188 mL/min
  Intrinsic clearance rate in vivo Clint In Vitro: 2.46 mL/min/gprot
  Liver clearance rate Clint Hep In Vivo Extpl: 167 mL/min
[2]; human, liver microsomes, pH 7.4, human liver microsomes, read-out: Half life T-half
  half-life: 14.2 h
[2]; human, liver microsomes, pH 7.4, human liver microsomes, read-out: Metabolic bioavailability MF %
  bioavailability: 88.8%
PRC2 enzyme
  IC50: 4.1 nM
[3]
  Clearance rate in vivo Clint In Vivo Extpl: 3.86 mL/min
  Half life T-half: 0.613 h
  Intrinsic clearance rate in vivo Clint In Vitro: 57.1 mL/min/gprot
  Liver clearance rate Clint Hep In Vivo Extpl: 1.69 mL/min
  Metabolic bioavailability MF %: 43.7%

## CC(C)(C)OC(=O)NC1CC=C(c2cnc(NCc3ccco3)n3cnnc23)CC1 (centres unmarked) [E-Y9]
Pfeiffer cells; 11 days
  IC50: 320 nM
